# Laboratory results taken from US8362018B2, “Substituted imidazo[1,2-a]pyrazine compounds useful for the treatment of viral infections” (Biofocus DPI, Ltd., priority 2007, dated 2013).
# Columns and labels:
# [1] = tested on: HCV replicon; experiment: anti-viral assay (EC50), Table 13; format: cell-based; details: Hepatitis C virus, anti-viral assays
# Excerpt: The ability of a compound to inhibit HCV replication can be measured in vitro or using animal models using models and assays well known to those of skill in the art (e.g. Pietschmann et al, Clin Liver Dis. 7(1)c23-43, 2003). In vitro techniques for measuring the ability of a compound to inhibit HCV replication involve using HCV or an HCV replicon. Because HCV is difficult to grow in culture, particular in vitro techniques employ an HCV replicon.
# An HCV replicon is an RNA molecule able to autonomously replicate in a cultured cell, such as Huh7. The HCV replicon expresses the HCV derived components of the replication machinery and contains cis-elements required for replication in a cultured cell. […]
# [2] = cytotoxicity measurement (CC50), Table 13; format: cell-based; details: human, Huh7 cells
structure (smiles),measurement,setting,value
Cc1ccc(CNc2nccn3c(-c4ccc(O)cc4)cnc23)cc1 [Compound 38],EC50,[1],1 to 20 µM
same,CC50,[2],> 35 µM
CN1CCN(c2ccc(-c3cnc4c(Nc5cccc(OC(F)(F)C(F)F)c5)nccn34)cn2)CC1 [Compound 63],EC50,[1],1 to 20 µM
same,CC50,[2],< 35 µM
NS(=O)(=O)c1ccc(CNc2nccn3c(-c4ccc(F)cc4)cnc23)cc1 [Compound 11],EC50,[1],1 to 20 µM
same,CC50,[2],> 35 µM
Oc1ccc(-c2cnc3c(NCc4ccncc4)nccn23)cc1 [Compound 5],EC50,[1],1 to 20 µM
same,CC50,[2],> 35 µM
Nc1ccc(-c2cnc3c(NCc4ccc(S(N)(=O)=O)cc4)nccn23)cc1 [Compound 50],EC50,[1],1 to 20 µM
same,CC50,[2],> 35 µM
CC(=O)c1cccc(-c2cnc3c(NCCc4cccnc4)nccn23)c1 [Compound 84],EC50,[1],1 to 20 µM
same,CC50,[2],< 35 µM
CC(C)c1ccc(Nc2nccn3c(-c4ccc(O)cc4)cnc23)cc1 [Compound 69],EC50,[1],1 to 20 µM
same,CC50,[2],< 35 µM
COc1ccc(-c2cnc3c(Nc4ccc(N5CCOCC5)cc4)nccn23)cc1OC [Compound 64],EC50,[1],1 to 20 µM
same,CC50,[2],< 35 µM
COc1ccc(-c2cnc3c(NCCc4ccc(S(N)(=O)=O)cc4)nccn23)cc1OC [Compound 17],EC50,[1],1 to 20 µM
same,CC50,[2],< 35 µM
NS(=O)(=O)c1ccc(CNc2nccn3c(-c4cccc(CO)c4)cnc23)cc1 [Compound 75],EC50,[1],1 to 20 µM
same,CC50,[2],< 35 µM
COc1ccc(-c2cnc3c(NCc4ccc(S(N)(=O)=O)cc4)nccn23)cc1 [Compound 16],EC50,[1],1 to 20 µM
same,CC50,[2],> 35 µM
"Cc1nc2c(NCc3ccc(S(N)(=O)=O)cc3)nccn2c1-c1ccc(O)cc1 [Compound 104, 4-{[3-(4-Hydroxy-phenyl)-2-methyl-imidazo[1,2-a]pyrazin-8-ylamino]-methyl}-benzenesulfonamide]",EC50,[1],1 to 20 µM
same,CC50,[2],> 35 µM
COc1ccc(-c2cnc3c(NCc4ccc(S(N)(=O)=O)cc4)nccn23)cc1OC [Compound 9],EC50,[1],< 1 µM
same,CC50,[2],> 35 µM
Oc1ccc(-c2cnc3c(NCc4ccccc4Cl)nccn23)cc1 [Compound 37],EC50,[1],1 to 20 µM
same,CC50,[2],> 35 µM
OCc1ccc(CNc2nccn3c(-c4ccc(O)cc4)cnc23)cc1 [Compound 47],EC50,[1],1 to 20 µM
same,CC50,[2],< 35 µM
NS(=O)(=O)c1ccc(CNc2nccn3c(-c4ccc5c(c4)OCO5)cnc23)cc1 [Compound 8],EC50,[1],1 to 20 µM
same,CC50,[2],< 35 µM
CNC(=O)c1ccc(CNc2nccn3c(-c4ccc(O)cc4)cnc23)cc1 [Compound 49],EC50,[1],1 to 20 µM
same,CC50,[2],< 35 µM
COc1ccc(-c2cnc3c(NCc4cnccn4)nccn23)cc1OC [Compound 23],EC50,[1],1 to 20 µM
same,CC50,[2],> 35 µM
CC(=O)Nc1ccc(-c2cnc3c(NCc4ccc(S(N)(=O)=O)cc4)nccn23)cc1 [Compound 27],EC50,[1],1 to 20 µM
same,CC50,[2],> 35 µM
COc1ccc(-c2cnc3c(NCc4cccs4)nccn23)cc1OC [Compound 66],EC50,[1],1 to 20 µM
same,CC50,[2],< 35 µM
CS(=O)(=O)Nc1cccc(-c2cnc3c(NCc4ccc(S(N)(=O)=O)cc4)nccn23)c1 [Compound 71],EC50,[1],1 to 20 µM
same,CC50,[2],< 35 µM
COC(=O)c1ccc(CNc2nccn3c(-c4ccc(OC)c(OC)c4)cnc23)cc1 [Compound 13],EC50,[1],1 to 20 µM
same,CC50,[2],< 35 µM
CNS(=O)(=O)c1ccc(CNc2nccn3c(-c4ccc(OC)cc4)cnc23)cc1 [Compound 100],EC50,[1],1 to 20 µM
same,CC50,[2],> 35 µM
